Experimental data taken from patent US7897568B2, “Compositions for treatment of cancer” (priority 2006, dated 2011).
Where a SMILES comes first, the peptide text is derived from it. Where no end group is shown, it is not given here.

Tests used:
[1] = biological target: SNCG (Homo sapiens, UniProt O76070); assay: Far-UV circular dichroism of SNCG titrated with ANK peptide, calculated secondary structure; design: The SNCG coding region was amplified from the human cDNA clone; GST (N, cleaved yes); made in house; host or cells: Escherichia coli BL21 (DE3)
Sequence of SNCG (O76070 whole entry): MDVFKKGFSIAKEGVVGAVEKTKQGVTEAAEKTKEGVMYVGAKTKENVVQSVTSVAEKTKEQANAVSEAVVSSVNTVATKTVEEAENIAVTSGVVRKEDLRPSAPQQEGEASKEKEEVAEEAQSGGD
Method: FIGS. 1B and 1C provide far-UV circular dichroism (CD) spectra of SNCG (10 μM) with titration of ANK peptide […] (SEQ ID NO:1) at concentrations of 2 μM, 12 μM and 24 μM (FIG. 1B) and 25 μM, 50 μM and 100 μM (FIG. 1C). […] Spectra patterns correspond to random coil structures.
Titration of SNCG with the ANK peptide also gave rise to far-UV spectra characteristic of an unfolded protein (FIG. 1B) and produced no significant changes in calculated secondary structure.
The SNCG-ANK interaction was monitored using far-UV CD recorded on a rapid-scanning monochromator fitted with a CD module (RSM 1000, Olis Inc., Bogart Ga.). Samples containing 0.145 mg/ml SNCG were dialyzed into 5 mM sodium phosphate buffer, pH 7.0 for data acquisition. Spectra were averaged from 12 scans recorded at 25° C. The baseline was corrected by subtracting the spectra measured under identical conditions for the remaining buffer after dialysis. Peptide was reconstituted into flow-through buffer after dialysis and used for titration. Molar ellipticity [θ] was calculated according to the formula [θ]=[θ]×100/(nlc), where n represents the number of amino acids in the protein, l represents the path length of the cuvette in centimeters and c represents the concentration in millimolar. Percentage secondary structure was calculated using the web-based program CDNN (Bohm et al. Protein Eng. 1992 5:191-195).

[2] = system: MCF7-SNCG cells; assay: Flow cytometry (PI cell cycle and anti-phospho-H3) after paclitaxel; type: cell-based; details: 0.5 μM paclitaxel
Method: FIG. 7A through D show expression of EGFP-ANK disrupting the SNCG-mediated inhibition of mitotic checkpoint function as measured by microscopy and flow cytometry. The bar graphs show the expression of EGFP-ANK disrupting the SNCG-mediated inhibition of mitotic checkpoint function, using (FIG. 7A) DAPI and (FIG. 7B) anti-phospho-H^3 staining. For graphs of FIGS. 7A and 7B, the cells treated with 0.5 μM paclitaxel for 18 hours or untreated control cells were fixed with 4% paraformaldehyde for 20 minutes at room temperature. In both cases, the cells were then stained with 1 μg/ml of DAPI or 2 μg/ml anti-phospho-H3 primary and Texas Red goat anti-rabbit secondary antibodies (Invitrogen). Green fluorescent cells were identified for positive transfected cells. For each sample, 200-300 cells randomly chosen from 5 different views under a Nikon fluorescent microscope were scored for interphase, mitotic, or apoptotic based upon nuclei morphology. The data shown were derived from three separate transfections (p<0.01). […]
Two days after transfection, cells were exposed to paclitaxel for 18 hours and numbers of mitotic arrested and apoptotic cells were counted after DAPI staining. […] These cells were also probed with rabbit polyclonal anti-phospho-H^3 and the mitotic index was calculated according to the proportion of the number of H^3 stained EGFP positive cells to total EGFP positive cells (FIG. 7B). […]

Compound: CC[C@H](C)[C@H](NC(=O)[C@H](CS)NC(=O)CNC(=O)[C@H](CC(C)C)NC(=O)[C@H](Cc1c[nH]cn1)NC(=O)CNC(=O)[C@H](Cc1c[nH]cn1)NC(=O)[C@H](CCC(N)=O)NC(=O)[C@H](CO)NC(=O)[C@H](C)NC(=O)[C@@H](NC(=O)[C@H](Cc1c[nH]cn1)NC(=O)[C@H](CC(C)C)NC(=O)[C@H](C)NC(=O)[C@H](CO)NC(=O)[C@H](CC(N)=O)NC(=O)CNC(=O)[C@H](CCCCN)NC(C)=O)C(C)C)C(=O)N[C@@H](CCC(N)=O)C(=O)N[C@H](C(=O)N[C@@H](CC(C)C)C(=O)N[C@H](C(=O)N[C@@H](CCCNC(=N)N)C(=O)N[C@@H](Cc1ccc(O)cc1)C(=O)NCC(=O)N[C@@H](C)C(=O)N[C@@H](CC(N)=O)C(=O)N[C@H](C(=O)N[C@H](C(=O)N[C@@H](CCSC)C(=O)N[C@@H](CCC(N)=O)C(=O)N[C@@H](CC(N)=O)C(=O)N[C@@H](Cc1c[nH]cn1)C(=O)NCC(N)=O)[C@@H](C)O)C(C)C)C(C)C)[C@@H](C)O [ANK peptide] (Ac-KGNSALHVASQHGHLGCIQTLVRYGANVTMQNHG-NH2)
- Structure (%) Antiparallel ([1]; SNCG + 2.0 μM ANK Peptide): 9.00%
- Structure (%) Beta-Turn ([1]; SNCG + 2.0 μM ANK Peptide): 17.6%
- Structure (%) Helix ([1]; SNCG + 2.0 μM ANK Peptide): 29.2%
- Structure (%) Parallel ([1]; SNCG + 2.0 μM ANK Peptide): 10.3%
- Structure (%) Random Coil ([1]; SNCG + 2.0 μM ANK Peptide): 36.0%
- Structure (%) Antiparallel ([1]; SNCG + 12 μM ANK Peptide): 8.80%
- Structure (%) Beta-Turn ([1]; SNCG + 12 μM ANK Peptide): 17.4%
- Structure (%) Helix ([1]; SNCG + 12 μM ANK Peptide): 30.0%
- Structure (%) Parallel ([1]; SNCG + 12 μM ANK Peptide): 10.0%
- Structure (%) Random Coil ([1]; SNCG + 12 μM ANK Peptide): 35.4%
- Structure (%) Antiparallel ([1]; SNCG + 24 μM ANK Peptide): 8.70%
- Structure (%) Beta-Turn ([1]; SNCG + 24 μM ANK Peptide): 17.3%
- Structure (%) Helix ([1]; SNCG + 24 μM ANK Peptide): 30.4%
- Structure (%) Parallel ([1]; SNCG + 24 μM ANK Peptide): 9.90%
- Structure (%) Random Coil ([1]; SNCG + 24 μM ANK Peptide): 35.0%

Compound: EGFP-ANK: ANK peptide expressed as a fusion protein with its amino-terminal linked to EGFP protein, approximately 37 kDa ({EGFP}-KGNSALHVASQHGHLGCIQTLVRYGANVTMQNHG)
- increase in positive phosphorylated histones (anti-phospho-H3 staining) ([2]; versus MCF7-SNCG cells not containing EGFP-ANK): 3,5 fold
- increase in apoptotic/dead cell population ([2]; cell cycle analysis, versus control vector pEGFP): almost a four-fold increase
